Data as given in patent US20230183187A1, “QUINAZOLINE COMPOUNDS AS INHIBITORS OF PREMATURE TERMINATION CODONS” (CENTRE NATIONAL DE LA RECHERCHE SCIENTIFIQUE, priority 2020, published 2023).

Legend:
[1] = system: 40 more frequent nonsense mutations found in DMD gene; experiment: Dual reporter readthrough on the 40 most frequent DMD nonsense mutations; format: cell-based; set-up: number of DMD nonsense sequences on which readthrough is promoted: dose or concentration left out as unconfirmed
Excerpt: Complementary oligonucleotides corresponding to TP53 R213X nonsense mutations and 9 nucleotides on both sides are ligated into the pAC99 dual reporter plasmid, as previously described (Premature stop codons involved in muscular dystrophies show a broad spectrum of readthrough efficiencies in response to gentamicin treatment, Bidou et al, Gene Therapy 1 Apr. 2004, 11(7):619-627). This dual reporter is used to quantify stop-codon readthrough through the measurement of luciferase and beta-galactosidase (internal calibration) activities, as previously described (Stahl et al, Versatile vectors to study recoding: conservation of rules between yeast and mammalian cells. Nucleic Acids Res 1995; 23:1557-60). Readthrough levels for nonsense mutations were analysed in the presence or absence of tested molecules. Cells were seeded in a 6-well plate. […] The following day, they are rinsed with fresh medium, with or without readthrough inducers. […] Readthrough efficiency was estimated by calculating the ratio of luciferase activity to beta-galactosidase activity obtained with the test construct, with normalisation against an in-frame control construct. […]
Each nonsense mutation (+9 nucleotides in each side) has been cloned into the dual reporter previously used. Stop codon readthrough efficiency has been quantified either without drug or in presence of gentamicin or TLN68, in 6 independent experiments. […]

[2] = system: +1 programmed ribosomal frameshifting from OAZ1 gene; experiment: Frameshifting test, dual reporter; format: cell-based; settings: treated vs untreated cells (FIG. 8)
Excerpt: TLN468 has no impact on both −1 and +1 programmed ribosomal frameshifting (PRF). No significant difference is observed between treated and untreated cells (right and left bars respectively). TLN468 has been tested on −1 PRF from HIV-1 and +1 PRF from OAZ1 gene.

[3] = system: TP53 R213X nonsense mutation; experiment: Dual reporter (lacZ/F-luc, pAC99) stop codon readthrough quantification, R213X, NIH3T3 cells; format: cell-based, mouse; settings: 24 h, each drug separately or together
Excerpt: Complementary oligonucleotides corresponding to TP53 R213X nonsense mutations and 9 nucleotides on both sides are ligated into the pAC99 dual reporter plasmid, as previously described (Premature stop codons involved in muscular dystrophies show a broad spectrum of readthrough efficiencies in response to gentamicin treatment, Bidou et al, Gene Therapy 1 Apr. 2004, 11(7):619-627). This dual reporter is used to quantify stop-codon readthrough through the measurement of luciferase and beta-galactosidase (internal calibration) activities, as previously described (Stahl et al, Versatile vectors to study recoding: conservation of rules between yeast and mammalian cells. Nucleic Acids Res 1995; 23:1557-60). Readthrough levels for nonsense mutations were analysed in the presence or absence of tested molecules. Cells were seeded in a 6-well plate. The next day, cells are transfected with the reporter plasmid in the presence of JetPei reagent (Invitrogen). The following day, they are rinsed with fresh medium, with or without readthrough inducers. […] Readthrough efficiency was estimated by calculating the ratio of luciferase activity to beta-galactosidase activity obtained with the test construct, with normalisation against an in-frame control construct. […]

nonsense mutation W1268X = experiment: pAC99 dual reporter readthrough in HeLa cells, W1268X; format: cell-based, human; settings: 24 hours
Protocol: (§1) Different compounds of the invention have been tested for their ability to induce readthrough on the nonsense mutation W1268X or R213X in HeLa cells.
(§2) To this aim the inventors used the pAC99 dual reporter plasmid. This dual reporter is used to quantify stop-codon readthrough through the measurement of luciferase and beta-galactosidase (internal normalisation) activities. Readthrough levels for nonsense mutations were analysed in the presence or absence of tested molecules. Cells are seeded in a 6-well plate. The next day, cells are transfected with the reporter plasmid using the JetPei reagent (Invitrogen). The following day, they are rinsed with fresh medium, with or without readthrough inducers. Cells were harvested 24 hours later, with trypsin—EDTA (Invitrogen), lysed with Glo lysis buffer (Promega) and beta-galactosidase and luciferase activities were assayed as previously described. Readthrough efficiency was estimated by calculating the ratio of luciferase activity to beta-galactosidase activity obtained with the test construct, with normalisation against an in-frame control construct. At least five independent transfection experiments were performed for each assay.

nonsense mutation R213X = experiment: pAC99 dual reporter readthrough in HeLa cells, R213X; format: cell-based, human; settings: 24 hours
Protocol: as §1, §2

Bax mRNA (target of p53) = experiment: RT-qPCR of Bax mRNA in HDQ-P1 cells; format: cell-based, human; settings: HDQ-P1, TLN68 80 μM, 48 hours, n=3
Protocol: (§3) For the analysis of mRNA levels for p53 and its transcriptional target genes, Bax, the inventors extracted total RNA from HDQ-P1 cells that had or had not been treated with G418 (400 μM) or TLN68 (80 μM) for 48 hours (RNeasy Mini Kit, Qiagen). The RNA was treated with DNAse I (RNase-free DNase) and quantified with a Nanodrop spectrometer (ThermoScientific). The absence of RNA degradation was confirmed by agarose gel electrophoresis. The first-strand cDNA was synthesized from 2 μg of total RNA, with random primers and the SuperScript II Reverse Transcriptase (Invitrogen), as recommended by the manufacturer. Quantitative PCR was then carried out on equal amounts of the various cDNAs, with a CFX96 thermocycler (Biorad), and the accumulation of products was monitored with the intercalating dye FastStart Universal SYBRGreen Master (ROX) reagent (Roche). The inventors quantified mRNA levels relative to three reference mRNAs: RPL32, Hprt1 and HMBS. In each experiment, results are expressed relative to those for untreated cells, for which the value obtained was set to 1. Relative levels of gene expression were calculated at early stages of PCR, when the amplification was exponential and might, therefore, be correlated with the initial number of copies of the transcript. […] For the quantification of each mRNA, three independent experiments (from biological replicates) were performed in triplicate. […]

TP53-R213X mRNA = experiment: RT-qPCR of mutant p53 mRNA in HDQ-P1 cells; format: cell-based, human; settings: HDQ-P1, 48 hours; TLN68 80 μM, TLN309 40 μM; n=3
Protocol: as §3

Cc1nc(NC(=N)N)nc2ccccc12 [TLN68]
readthrough compared with gentamicin on the DMD set of sequences ([1]; gentamicin 2.5 mM, same conditions): outperforms gentamicin | number of DMD nonsense sequences on which readthrough is promoted ([1]; out of 40 tested, 6 independent experiments): 28 | impact on +1 programmed ribosomal frameshifting [2]: no impact | readthrough level [3]: 11% | Inducting factor of readthrough as compared to untreated cells (measured on nonsense mutation W1268X) (nonsense mutation W1268X): 9 | Inducting factor of readthrough as compared to untreated cells (measured on nonsense mutation R213X) (nonsense mutation R213X): 14 | induction of bax mRNA level relative to untreated (Bax mRNA (target of p53)): 3 fold | stabilisation of TP53-R213X mRNA relative to untreated (TP53-R213X mRNA): 6 fold
